Assay results taken from the NIST ThermoML archive (doi:10.1021/acs.jced.5b00251).

Assay: refractive index (other wavelength) (dimensionless); xn = mol fraction of the nth substance listed
Details: 101 kPa, Liquid, Standard Abbe refractometry

CC(C)Cc1ccccc1 [(2-methylpropyl)benzene] + CCCCCCCCCCCC
refractive index
Details	x1 = 0.1014	x1 = 0.2024	x1 = 0.3032	x1 = 0.4036	x1 = 0.5038	x1 = 0.6036	x1 = 0.7032	x1 = 0.8024	x1 = 0.9014
313.15 K, Wavelength=589.3 nm	–	–	–	–	1.44159	1.44797	1.45466	1.46154	1.46878
313.15 K, Wavelength=633.2 nm	1.41677	1.42191	1.42752	1.43336	1.43965	1.4459	1.45247	1.45924	1.46652
313.15 K, Wavelength=657.2 nm	1.41612	1.42149	1.42761	1.43304	1.43882	1.44496	1.45159	1.45817	1.46515
318.15 K, Wavelength=436.1 nm	1.42579	1.43204	1.43791	1.44498	1.4518	1.45921	1.46673	1.47452	1.48247
318.15 K, Wavelength=513.9 nm	1.41953	1.42512	1.43094	1.43729	1.44389	1.45049	1.45744	1.46465	1.47245
318.15 K, Wavelength=589.3 nm	1.41596	1.42122	1.42669	1.43297	1.43898	1.44556	1.45224	1.4591	1.46615
318.15 K, Wavelength=633.2 nm	1.41454	1.41993	1.425	1.43114	1.4371	1.44352	1.45008	1.45679	1.46372
318.15 K, Wavelength=657.2 nm	1.41386	1.41979	1.42574	1.43091	1.43665	1.44244	1.44935	1.45594	1.46262
